Measurements published in ChEMBL document CHEMBL1201862, “PubChem BioAssay data set” (2004).
Active and inactive are the calls of the source. For most assays here, no stated cut-off is given here; in the data, actives have a measured EC50 and inactives only a lower limit.

Legend:
[1] = test system: Streptococcus sp. 'group A'; experiment: Streptococcus pyogenes SK(-)GAS viability under kanamycin – luminescence, BacTiterGlo, confirmation, counter-screen for streptokinase expression inhibitor project, dose response (AID 1900); assay type: functional, organism-based
[2] = test system: Streptococcus; experiment: GAS UMAA2166 growth inhibition – luminescence, BacTiterGlo, counter-screen for streptokinase expression inhibitor project, dose response (AID 1915); assay type: functional, organism-based;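 further: potency for reduction of bacterial viability or growth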
[3] = Trypanosoma cruzi growth suppression in host cells – NIH3T3 host cells, beta-gal luminescence, confirmation (AID 2044); assay type: functional, cell-based;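 further: intracellular parasites grown in NIH/3T3 mouse fibroblasts as host cells; luminescent beta-galactosidase reporter signal from transgenic T. cruzi replicating inside host cells; inhibitors lower the luminescence signal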
[4] = NIH3T3 cell viability loss – ATP luminescence, mouse fibroblasts, counter-screen, dose response (AID 2010); assay type: functional, cell-based;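 further: cells exposed to compound for about 90 hours before reading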
[5] = biological target: Cytochrome P450 3A4 (Homo sapiens, UniProt P08684);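 further: CYP3A4 tested as one member of a cytochrome P450 panel screen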
[6] = biological target: T1, Streptokinase A (Streptococcus pyogenes serotype M1, UniProt P10520); experiment: viability-normalized secreted streptokinase activity reduction – plasminogen activation absorbance, OD405, dose response (AID 1914); assay type: functional, Streptococcus pyogenes M1 GAS;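 further: secreted streptokinase activity via plasminogen activation per viability signal from cell pellet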
T1 sequence (P10520 whole entry): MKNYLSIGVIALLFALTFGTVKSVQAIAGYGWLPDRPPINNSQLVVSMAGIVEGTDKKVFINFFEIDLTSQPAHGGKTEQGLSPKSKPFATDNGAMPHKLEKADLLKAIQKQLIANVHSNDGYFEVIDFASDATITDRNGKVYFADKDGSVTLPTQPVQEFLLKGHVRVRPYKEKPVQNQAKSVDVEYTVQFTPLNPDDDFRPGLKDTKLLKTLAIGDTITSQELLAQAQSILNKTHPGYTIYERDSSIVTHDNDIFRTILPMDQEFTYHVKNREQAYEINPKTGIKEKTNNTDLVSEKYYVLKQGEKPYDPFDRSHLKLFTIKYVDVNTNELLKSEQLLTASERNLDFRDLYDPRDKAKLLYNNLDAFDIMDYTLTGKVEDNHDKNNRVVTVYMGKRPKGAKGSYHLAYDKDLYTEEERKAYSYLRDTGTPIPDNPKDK

[7] = biological target: Cytochrome P450 2C9 (Homo sapiens, UniProt P11712)
[8] = Luminescence Cell-Based Dose Response HTS to Identify Activators of Luciferase Translation or Activity in H4 […] Cells. [Related pubchem assays: 1829 (Project Summary), 1814 (Primary HTS)]; assay type: functional
[9] = test system: H4; experiment: Luminescence Cell-Based Dose Response HTS to Identify Activators of 5'UTR Stem-Loop Driven Prion Protein mRNA Translation in H4 Neuroglioblastoma Cells. [Related pubchem assays: 1829 (Project Summary), 1814 (Primary HTS)]; assay type: functional; conditions: Homo sapiens

Chain of Cytochrome P450 2C9 (P11712 whole entry): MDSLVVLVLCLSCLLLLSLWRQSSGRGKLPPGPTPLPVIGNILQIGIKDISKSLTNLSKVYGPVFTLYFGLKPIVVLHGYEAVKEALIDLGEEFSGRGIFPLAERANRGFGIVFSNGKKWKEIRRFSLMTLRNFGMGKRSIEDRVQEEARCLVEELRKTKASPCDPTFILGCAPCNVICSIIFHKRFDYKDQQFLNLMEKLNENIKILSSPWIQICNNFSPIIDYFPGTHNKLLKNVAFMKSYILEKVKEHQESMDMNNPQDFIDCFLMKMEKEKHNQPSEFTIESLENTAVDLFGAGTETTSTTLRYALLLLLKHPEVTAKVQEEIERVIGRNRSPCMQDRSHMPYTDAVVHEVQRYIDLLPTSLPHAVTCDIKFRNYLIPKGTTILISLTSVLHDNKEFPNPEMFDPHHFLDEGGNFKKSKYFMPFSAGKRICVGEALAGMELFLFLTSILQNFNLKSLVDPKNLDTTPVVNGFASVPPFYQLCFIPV
Chain of Cytochrome P450 3A4 (P08684 whole entry): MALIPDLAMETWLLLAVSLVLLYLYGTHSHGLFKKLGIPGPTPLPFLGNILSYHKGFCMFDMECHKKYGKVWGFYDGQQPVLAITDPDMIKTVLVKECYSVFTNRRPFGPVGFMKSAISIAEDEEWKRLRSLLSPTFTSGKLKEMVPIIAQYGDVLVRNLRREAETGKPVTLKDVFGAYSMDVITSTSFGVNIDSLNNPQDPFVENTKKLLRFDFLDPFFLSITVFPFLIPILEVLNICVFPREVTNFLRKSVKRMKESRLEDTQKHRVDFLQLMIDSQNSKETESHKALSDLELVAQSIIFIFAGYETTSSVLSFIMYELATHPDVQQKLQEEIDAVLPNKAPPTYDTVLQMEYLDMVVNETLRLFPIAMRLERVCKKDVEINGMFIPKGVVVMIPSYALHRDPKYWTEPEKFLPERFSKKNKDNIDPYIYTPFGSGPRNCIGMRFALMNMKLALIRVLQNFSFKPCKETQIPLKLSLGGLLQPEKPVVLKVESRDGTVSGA

Row | Structure (SMILES) | EC50 [1] | EC50 [2] | AC50 [5] | EC50 [6] | further results
1 | COc1ccc(C2CC(c3cccs3)=NN2C(=O)CSc2nc(O)c3cnn(-c4ccccc4)c3n2)cc1 (centres undefined) | 3 µM (active) | 5.77 µM (active) |  |  | 
2 | COc1ccc(CNC(=O)CN(Cc2ccccc2)S(=O)(=O)c2ccc(Cl)cc2)cc1 |  |  |  |  | EC50 [3]: 3.15 µM (active); EC50 [4]: > 60 µM (not active)
3 | Cc1nc2cnc(N3CCN(C)CC3)nc2n(Cc2ccc(F)cc2)c1=O |  |  | 20 µM (inconclusive) |  | 
4 | Cc1c(C(=O)N2CCC(Cc3ccccc3)CC2)sc2ncnc(N3CCC(C)CC3)c12 | 11.6 µM (active) | 60 µM (active) |  | 3.68 µM (active) | EC50 [3]: 1.68 µM (active); EC50 [4]: > 60 µM (not active)
5 | O=C(CSc1nc2ccc([N+](=O)[O-])cc2s1)c1ccc2ccccc2c1 |  |  | 3.98 µM (inconclusive) |  | 
6 | COc1ccc(C(=O)Nc2sc(C)c(-c3ccccc3)c2C#N)cc1OC | 9.09 µM (active) | 45.5 µM (active) |  | > 150 µM (not active) | 
7 | O=c1c(-c2cccs2)nc2cnc(Oc3ccccc3)nc2n1Cc1cccs1 |  |  | 15.8 µM (inconclusive) |  | AC50 [7]: 1.58 µM (inconclusive)
8 | COc1ccc2c3c1O[C@@H]1C(=O)CC[C@@]4(O)[C@@H](C2)N(CC2CC2)CC[C@]314 |  |  | 25.1 µM (inconclusive) |  | 
9 | CC(C)c1c(C(=O)N/N=C/c2cccc(OCc3ccccc3)c2)nnn1-c1nonc1N | 8.03 µM (active) | 26.4 µM (active) |  | 9.73 µM (active) | 
10 | COc1cccc(CNC(=O)CCC2CCCN(Cc3cc4ccccc4o3)C2)c1 (centres undefined) |  |  |  |  | EC50 [3]: 0.103 µM (active); EC50 [4]: > 60 µM (not active)
11 | COc1cccc(NCc2cc(=O)oc3cc(C)c(O)cc23)c1 | 1.83 µM (active) | 2.79 µM (active) |  |  | 
12 | Cc1noc(C)c1CSCC(=O)Nc1nc2ccc(Oc3ccccc3)cc2s1 | 4.32 µM (active) | > 150 µM (not active) |  | 16.9 µM (active) | 
13 | CN(C)c1cc(-c2cccc(NS(C)(=O)=O)c2)ncn1 |  |  | 25.1 µM (inconclusive) |  | 
14 | COc1ccccc1C(=O)Nc1nnc(S(=O)(=O)N2CCN(c3ccc(F)cc3)CC2)s1 | 20.1 µM (active) | 119 µM (inconclusive) |  | > 50 µM (not active) | 
15 | CC(Oc1ccc(Cl)cc1Cl)C(=O)Nc1ccc(S(=O)(=O)Nc2cnc3ccccc3n2)cc1 (centres undefined) | 2.45 µM (active) | 7.38 µM (active) |  | 3.69 µM (active) | 
16 | COc1ccccc1CNc1ncncc1-c1ccoc1 |  |  | 0.794 µM (inconclusive) |  | AC50 [7]: 1.58 µM (inconclusive)
17 | CC(C)CN1CCCC2(CCN(C(=O)c3cccn3C)CC2)C1 |  |  | 12.6 µM (inconclusive) |  | 
18 | Fc1ccc(/C=C\c2[nH]ccc3c4ccccc4nc2-3)cc1 |  |  |  |  | EC50 [8]: 17.7 µM (active); EC50 [9]: > 120 µM (not active)
19 | CCNC(C)(C)[C@@H](SS)c1ccc(Br)cc1 |  |  | 5.01 µM (inconclusive) |  | AC50 [7]: 6.31 µM (inconclusive)
20 | O=C(COC(=O)c1ccccc1)Nc1ccccc1Sc1ccccc1 | > 150 µM (not active) | > 150 µM (not active) |  | 28.8 µM (active) | 
21 | O=C(Cn1c(-c2ccccc2)c[n+]2ccsc12)c1ccccc1 |  |  |  |  | EC50 [3]: 2.29 µM (active); EC50 [4]: > 30 µM (not active)
22 | CC(NC(=O)CN1CCCC1)C12CC3CC(CC(C3)C1)C2 (centres undefined) |  |  | 14.1 µM (inconclusive) |  | 
23 | CCCC(N=C(S)NCC1CCCO1)C12CC3CC(CC(C3)C1)C2 (centres undefined) | 12.3 µM (active) | > 150 µM (not active) |  |  | 
24 | Cc1cc2c(cc1C)-c1c(ss/c1=N\c1ccc(S(N)(=O)=O)cc1)C(C)(C)N2 | 4.16 µM (active) | > 150 µM (not active) |  | 26.1 µM (active) | 
25 | C[C@@]12CC[C@H]3[C@@H](CC[C@@H]4C[C@H]5S[C@H]5C[C@]43C)[C@H]1CC[C@H]2O |  |  | 6.31 µM (inconclusive) |  | 
26 | CCCn1c(=O)c(C(=O)Nc2ncccc2C)c(O)c2ccccc21 | 9.49 µM (active) | 16.8 µM (active) |  | > 150 µM (not active) | 
27 | C/C(=N\NC(=O)c1[nH]c2c([N+](=O)[O-])cc(C)cc2c1-c1ccccc1)c1cccnc1 |  |  |  |  | AC50 [7]: 8.91 µM (inconclusive)
28 | O=C(Cn1cnc2cc([N+](=O)[O-])ccc2c1=O)Nc1ccc(Br)cc1 |  |  |  |  | EC50 [3]: 0.85 µM (active); EC50 [4]: > 30 µM (not active)
